Laboratory results published in patent US20250367631A1, “TWO PHASE FLOWS FOR REACTIONS AND SEPARATIONS” (University of Delaware, priority 2024, published 2025).
Read-outs that look alike come from different tables or passages of the source.

What was measured:
[1] = Organic solvent properties used in the CFD model (Table 2); type: physicochemical; settings: for Density / Dynamic viscosity: organic solvent; for Interfacial Tension: organic solvent / water
Excerpt: Principal component analysis (PCA) was used to identify the number of features required to capture the system's behavior. Considering material properties and dimensionless groups of both phases gave a total of 26 features (See Table 1 and definitions in the Supplemental Information (SI) herein below). The dimensionless groups were based on previous work. See, e.g., Chen, supra; Zhao, Y.; Chen, G.; Yuan, Q. “Liquid-liquid two-phase flow patterns in a rectangular microchannel.” AIChE Journal 2006, 52 (12), 4052-4060; Yagodnitsyna, A. A.; Kovalev, A. V.; Bilsky, A. V. “Flow patterns of immiscible liquid-liquid flow in a rectangular microchannel with T-junction.” Chemical Engineering Journal 2016, 303, 547-554; Zhao, C. X.; Middelberg, A. P. J. “Two-phase microfluidic flows.” Chemical Engineering Science 2011, 66 (7), 1394-1411. Apart from PCA, feature importance can rank features for classifying flowpatterns. A clustered covariance matrix may be employed to group dependent variables. We implemented these algorithms using the sklearn library in Python.
FIG. 11a, b, d and FIG. 11c maps the conditions for our experimental and computational flow patterns, respectively. As the diameter increases, different flow conditions (total volumetric flow rate, org/aq (v/v) ratio, various organic solvents) lead to varying patterns. […] For larger diameters, the parallel flow becomes prominent (FIG. 11c). […] At lower experimental flow rates (0.1-10 ml/min), no irregular flow is observed.

[2] = per Chen et al., cited from earlier work; for Diffusivity: HMF in the organic solvent; for Partition Coefficient: HMF, organic solvent/water
[3] = experimentally shown, Wang et al., cited from earlier work

| SMILES | Density [1] [kg m^−3] | Dynamic viscosity [1] | Interfacial Tension [1] [N m^−1] | Diffusivity [2] | Partition Coefficient [2] | KHMF (HMF partition coefficient) ([3]; 25° C.) | KHMF (HMF partition coefficient) ([3]; 150° C.) |
| --- | --- | --- | --- | --- | --- | --- | --- |
| CCCC(C)O (centres unmarked) [2-pentanol] | 812 | 3.47 × 10^−3 Pa · s | 0.0034 | 3.81 × 10^−10 m^2/s | 1.3 ± 0.07 |  |  |
| CCOC(C)=O [EtAc, ethyl acetate] | 900 | 4.41 × 10^−4 Pa · s | 0.0074 | 2.87 × 10^−9 m^2/s | 1.4 ± 0.05 |  |  |
| CC(=O)CC(C)C [MIBK, methyl isobutyl ketone] | 684 | 5.85 × 10^−4 Pa · s | 0.0157 | 2.43 × 10^−9 m^2/s | 1.1 ± 0.03 |  |  |
| Cc1cccc(O)c1 [m-cresol] |  |  |  |  |  | 20.6 | 4.2 |
